The values that follow come from US20050032866A1, “The use of 5ht4 receptor antagonists in the prophylaxis or treatment of certain cardiovascular conditions” (priority 2000, published 2005).

One series deals with 5-HT4A receptors (Homo sapiens, UniProt Q13639). As to conditions: cited from earlier work.
Another series addresses 5-HT3A receptors (Homo sapiens, UniProt P46098). As to conditions: cited from earlier work.
Series [1] concerns 5-HT-induced atrial arrhythmia in anesthetized Yucatan minipigs. In words: 5-HT-induced atrial fibrillation / atrial remodelling after rapid atrial pacing in anesthetized Yucatan minipigs. The series is classed as in vivo, Yucatan minipig. As to conditions: for AERP (Example 2): sensitized pigs, predrug 90±3; for AF inducibility: 64±6% prior to treatment, 10 bursts of pacing; for mean duration of AF episodes: pre-drug 1.9±0.4. The protocol: The antiarrhythmic efficacy of SB-207266 (0.3 and 1.0 mg/kg, intravenous) was evaluated on the inducibility of AF in a model of 5-HT-induced atrial arrhythmia in anesthetized Yucatan minipigs. […] The atrial effective refractory period (AERP) and AF inducibility were determined during programmed stimulation and burst electrical pacing.
Animals. Male Yucatan minipigs (12-17 kg weight) were obtained from Charles River (Saint-Aubin les Elboeuf, France) and were maintained at rest over a 2-week acclimatision period prior to experiments.
Surgical Preparation of Animals. The minipigs (Charles River, France) were fasted and premedicated (2 mg/kg diazepam+15 mg/kg ketamine, i.m.) before induction of anesthesia by isoflurane inhalation (5% for induction followed by 0.5 to 1.5% for technical preparation) in a mixture of 25% O2 and 75% N2O. The long term anesthesia was maintained with an i.v. infusion of sodium pentobarbital (12 mg/kg/h). A mechanical ventilator (Harvard pump 613) was used to provide artificial respiration during the left thoracotomy in order to keep arterial blood gases and pH within the normal limits (ABL 500 analyzer). Fluid filled catheters were placed in the femoral artery and vein to measure the arterial pressure (P23 ID transducer) and for drug administrations, respectively. Leads II, III and a precordial lead of electrocardiogram were placed for monitoring of standard ECG parameters. Two pairs of electrodes were hooked to the left atrial wall for subsequent stimulation (S8800 stimulator and SIU-5 unit) and for measurement of an atrial electrogram.
Sensitization of the Atrial Tissue. The left atrial appendage was sensitized by rapid atrial pacing (200 ms cycle length over 3 hours) to generate an initial electrical remodelling of the tissue [A. Goette et al., 1996, Circulation, 94, 2968-2974]. […] The cellulose patch retains the 5-HT in contact with the tissue.
Electrophysiologic Study. The atrial effective refractory period (AERP) was determined using a conventional single extrastimulus technique as previously described [A. Bril, B. Gout et al., J. Pharmacol. Exp. Ther., 1996, 276, 637-646.]. Briefly, a 8-stimulus train at a basic cycle length 20% shorter than the sinus rhythm was followed by a single premature extrastimulus (4 ms, 1.5 times threshold current) introduced at progressively shorter coupling intervals from the atrial pacing until no atrial response was obtained.
After determination of AERP, the atrial fibrillation (AF) challenge was started. AF was induced following atrial pacing by a 2 sec-burst of stimulation (basic cycle length 20 ms cycle length, 2 ms duration, twice the diastolic threshold) introduced within the vulnerable window (AERP+10 ms). AF was defined as at least 1 sec of irregular electrical activity measured on atrial electrogram.
Study Design and Dosing. After assessment of reproducible baseline responses of animals (3 successive AF challenges), the minipigs were randomly assigned to receive either sterile distilled water (vehicle group, n=7), or escalating doses of SB-207266 (0.3 and 1.0 mg/kg, n=7) given i.v. over a 10 min period 15 min before determination of AERP and subsequent AF challenge. SB-207266 was dissolved in sterile distilled water and adequate drug solutions were prepared every day. Treatment with vehicle represented a volume of distilled water similar to that used for drug solution (10 ml). Each dose of SB-207266 was administered at 45 min intervals to allow recovery of animals from previous burst pacing challenge.
Measurements and Calculations. All parameters were monitored on a chart paper polyrecorder (TA-5000) and digital recording was performed throughout the protocol (DTR 1800). When measured, heart rate was calculated from the ECG and the mean arterial blood pressure was calculated from the pulse pressure. A corrected QT was determined according to the Bazett's formula (QTc=QT (ms)/RR (sec)^1/2). […]

For series [2] the test system is unchanged. Described as above. The class given is in vivo, Yucatan minipig. As to conditions: 5-HT alone, topical application for 3 hours, no pacing; control 110.2±1.9; not significant; n=6.
Series [3] deals with piglet hippocampal 5-HT4 receptors (Sus scrofa, UniProt Q6Q253). In words: binding to piglet hippocampal 5-HT4 receptors, 125I-labelled SB-207710. As to conditions: piglet hippocampal membranes, n=4.
Chain of piglet hippocampal 5-HT4 receptors (Q6Q253 1-402): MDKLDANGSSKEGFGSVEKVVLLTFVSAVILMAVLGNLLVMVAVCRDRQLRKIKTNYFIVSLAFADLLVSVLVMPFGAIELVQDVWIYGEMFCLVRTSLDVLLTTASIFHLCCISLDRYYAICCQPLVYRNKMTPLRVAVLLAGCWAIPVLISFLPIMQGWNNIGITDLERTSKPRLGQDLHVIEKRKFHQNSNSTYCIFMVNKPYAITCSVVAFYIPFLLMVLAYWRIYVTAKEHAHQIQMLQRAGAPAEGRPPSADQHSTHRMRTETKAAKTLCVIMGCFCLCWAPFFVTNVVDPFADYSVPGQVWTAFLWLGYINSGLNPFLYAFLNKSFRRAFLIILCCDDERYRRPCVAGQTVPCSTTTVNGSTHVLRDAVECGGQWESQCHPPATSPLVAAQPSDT
The next series deals with 5-HT1C (Homo sapiens, UniProt P28335). The series is described as follows: radioligand selectivity, 5-HT1C receptors. The series is classed as binding. As to conditions: read-out: pKi at 5-HT1C (converted).
Chain of 5-HT1C (P28335 33-458, species assumed): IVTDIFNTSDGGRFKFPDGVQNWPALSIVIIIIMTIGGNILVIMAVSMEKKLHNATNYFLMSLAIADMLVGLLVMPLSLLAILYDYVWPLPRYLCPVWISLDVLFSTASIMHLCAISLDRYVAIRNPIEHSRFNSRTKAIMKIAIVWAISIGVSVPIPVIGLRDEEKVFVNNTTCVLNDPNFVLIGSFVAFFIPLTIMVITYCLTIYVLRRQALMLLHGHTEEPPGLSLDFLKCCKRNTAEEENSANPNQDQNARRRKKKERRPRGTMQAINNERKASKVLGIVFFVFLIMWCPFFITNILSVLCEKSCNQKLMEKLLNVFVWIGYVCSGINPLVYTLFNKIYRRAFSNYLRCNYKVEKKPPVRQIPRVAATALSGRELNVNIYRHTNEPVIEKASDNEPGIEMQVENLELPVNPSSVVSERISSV
Another series deals with 5-HT1A (Homo sapiens, UniProt P08908). The series is described as follows: radioligand selectivity, 5-HT1A receptors. The series is classed as binding. As to conditions: read-out: pKi at 5-HT1A (converted).
Chain of 5-HT1A (P08908 whole entry, species assumed): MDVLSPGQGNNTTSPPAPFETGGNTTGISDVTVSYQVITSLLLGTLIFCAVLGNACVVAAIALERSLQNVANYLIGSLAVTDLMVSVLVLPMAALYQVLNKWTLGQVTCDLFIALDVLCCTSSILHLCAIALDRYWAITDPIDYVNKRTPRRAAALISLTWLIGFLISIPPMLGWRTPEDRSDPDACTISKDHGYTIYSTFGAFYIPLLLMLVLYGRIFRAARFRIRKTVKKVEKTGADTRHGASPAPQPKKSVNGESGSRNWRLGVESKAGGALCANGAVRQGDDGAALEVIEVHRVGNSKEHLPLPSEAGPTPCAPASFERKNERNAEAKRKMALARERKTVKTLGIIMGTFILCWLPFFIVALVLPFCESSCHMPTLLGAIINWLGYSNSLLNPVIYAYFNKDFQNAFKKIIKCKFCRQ
The next series has as its target 5-HT4B receptor (Homo sapiens, UniProt Q13639). In words: 5-HT4B receptor antagonism. The series is classed as biochemical.
Series [4] can be described thus: preliminary studies of side-effects at human daily oral doses. The series is classed as in vivo. As to conditions: corresponds to about 1.6 to 1.7 mg/kg/day or more.
Series [5] in a line: plasma pharmacokinetics of SB 207266 on once daily oral dosing. The class given is in vivo, human.
For the next series, the target named is T1, 5-HT4 receptor (Cavia porcellus, UniProt O70528).
T1 construct: Longitudinal muscle-myenteric plexus preparations, approximately 3 cm long, are obtained from the distal colon region; from tissue; host or cells: guinea-pig distal colon longitudinal muscle-myenteric plexus
T1 sequence (O70528 whole entry): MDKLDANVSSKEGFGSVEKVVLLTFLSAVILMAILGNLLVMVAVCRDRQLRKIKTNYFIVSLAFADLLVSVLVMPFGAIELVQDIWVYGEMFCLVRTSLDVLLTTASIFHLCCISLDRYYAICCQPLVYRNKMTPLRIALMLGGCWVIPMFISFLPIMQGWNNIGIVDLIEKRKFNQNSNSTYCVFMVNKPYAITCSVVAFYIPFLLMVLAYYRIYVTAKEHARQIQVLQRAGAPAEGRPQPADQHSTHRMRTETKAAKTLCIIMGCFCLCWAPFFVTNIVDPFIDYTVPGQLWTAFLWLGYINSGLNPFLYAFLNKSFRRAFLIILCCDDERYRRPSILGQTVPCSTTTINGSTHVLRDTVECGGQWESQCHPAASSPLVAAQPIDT
The series is described as follows: guinea pig distal colon longitudinal muscle-myenteric plexus, 5-HT-evoked contraction. The class given is cell-based. On the procedure: Male guinea-pigs, weighing 250-400 g are used.
In some experiments, this tissue was dosed alternately with an approximately equi-effective concentration of the nicotine receptor stimulant, dimethylphenylpiperazinium (DMPP).

Series [6] is described as follows: plasma concentration of SB-207266 in minipig (LC/MS/MS). The class given is in vivo, Yucatan minipig. As to conditions: 5 min after end of bolus. On the procedure:
Evaluation of Plasma Concentration of SB-207266. For each AF challenge, blood samples were collected on EDTA (6%) 5 min after the end of the bolus administration of drug (time point 15 min, see asterisks in FIG. 4A) and centrifuged (1500×g, 10 min at 4° C.). The plasma samples were stored at −80° C. for subsequent analysis. Plasma samples were not collected in the vehicle group. The determination of plasma concentration of SB-207266 was performed by LC/MS/MS with a LLQ for this assay of 5 ng/ml in the pig.

Structures are written as SMILES. “And” between values parts separate entries of the source, which are not always exact repeats. Identical values can stand only once. Where only a bound is given, the exact number is not on record here.

Chain of 5-HT4B receptor (Q13639 whole entry): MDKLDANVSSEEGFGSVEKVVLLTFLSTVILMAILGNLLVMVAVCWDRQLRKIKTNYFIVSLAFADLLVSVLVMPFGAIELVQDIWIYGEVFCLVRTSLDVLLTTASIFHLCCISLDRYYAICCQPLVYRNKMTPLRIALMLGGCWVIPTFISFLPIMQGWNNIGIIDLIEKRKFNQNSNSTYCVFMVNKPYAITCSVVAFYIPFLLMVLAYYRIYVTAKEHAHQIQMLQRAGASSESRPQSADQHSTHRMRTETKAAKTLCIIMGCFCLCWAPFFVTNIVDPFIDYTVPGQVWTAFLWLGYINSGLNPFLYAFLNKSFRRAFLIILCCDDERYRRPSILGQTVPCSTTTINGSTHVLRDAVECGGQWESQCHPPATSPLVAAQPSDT
Chain of 5-HT3A receptors (P46098 24-478): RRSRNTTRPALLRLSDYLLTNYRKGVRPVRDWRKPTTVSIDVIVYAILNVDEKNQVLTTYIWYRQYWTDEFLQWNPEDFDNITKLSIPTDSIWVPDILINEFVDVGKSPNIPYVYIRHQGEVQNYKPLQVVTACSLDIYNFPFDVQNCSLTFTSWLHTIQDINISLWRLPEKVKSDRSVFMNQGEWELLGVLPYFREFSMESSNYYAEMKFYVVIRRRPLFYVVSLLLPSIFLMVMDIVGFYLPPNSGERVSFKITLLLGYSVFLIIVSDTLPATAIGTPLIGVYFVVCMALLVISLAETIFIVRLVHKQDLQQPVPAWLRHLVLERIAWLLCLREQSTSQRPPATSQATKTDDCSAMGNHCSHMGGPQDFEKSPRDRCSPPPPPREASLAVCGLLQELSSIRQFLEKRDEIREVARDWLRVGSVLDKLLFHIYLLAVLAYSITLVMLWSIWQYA
Chain of 5-HT4A receptors (Q13639 1-387 isoform Q13639-2): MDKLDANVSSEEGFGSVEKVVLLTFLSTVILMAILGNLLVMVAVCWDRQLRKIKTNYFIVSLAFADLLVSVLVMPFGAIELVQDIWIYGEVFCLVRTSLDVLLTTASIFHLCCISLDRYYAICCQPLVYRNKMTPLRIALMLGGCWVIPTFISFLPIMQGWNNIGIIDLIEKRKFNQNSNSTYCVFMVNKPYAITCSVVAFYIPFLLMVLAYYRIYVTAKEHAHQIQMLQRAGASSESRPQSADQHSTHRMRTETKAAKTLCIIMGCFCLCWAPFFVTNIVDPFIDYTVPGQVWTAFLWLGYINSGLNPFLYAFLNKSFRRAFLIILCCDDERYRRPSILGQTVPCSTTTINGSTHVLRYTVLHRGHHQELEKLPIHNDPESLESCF

As to `Cc1noc(-c2ccccc2NC(=O)OCC2CCN(CCNS(C)(=O)=O)CC2)n1` [GR 138897, [1-[2-[(Methylsulphonyl)amino]ethyl]-4-piperidinyl]methyl[2-(3-methyl-1,2,4-oxadiazol-5-yl)phenyl]carbamate], the pKi – broadly, the Ki on a negative log10 scale, so that one unit is a factor of ten – at 5-HT4A receptors on 5-HT4A receptors is reported as 10.3. In addition, at 5-HT3A receptors, the “pKi at 5-HT3A receptors” value is listed as less than 5.0.

For the compound `NCCc1c[nH]c2ccc(O)cc12` [5-HT, reference compound], the AERP was found to be 91.8 ± 3.3 ms in [1] (5-HT applied after 3 h rapid atrial pacing, pacing alone 93.6±3.6) and 104.0 ± 6.5 ms in [2]. In series [1] (rapid atrial pacing and application of 5-HT, before vehicle or drug, from 111.6±2.6), the “AERP (Example 1)” value turned out to be 90.9 ± 2.1 ms.

Regarding `CCCCN1CCC(COC(=O)c2cc(I)c(N)c3c2OCCO3)CC1` [SB-207710, (1-butyl-4-piperidyl)methyl 8-amino-7-iodo-1,4-benzodioxan-5-carboxylate], in series [3], the Bmax of radioligand is reported as 16±3 fmol/mg protein. Also, the Ki on 5-HT1C and at 5-HT1A was not below 1000 nM throughout.

`CCCCN1CCC(CNC(=O)c2c3n(c4ccccc24)CCCO3)CC1` [SB 207266, N-[(1-^nbutyl-4-piperidinyl)methyl]-3,4-dihydro-2H-[1,3]oxazino[3,2-a]indole-10-carboxamide]: the “AERP (Example 1)” value in series [1] (0.3 mg/kg i.v., after pacing and 5-HT, pre-drug 90.0±2.7, p<0.01 vs vehicle) was 102.3 ± 2.7 ms. Further, in series [1] (0.3 mg/kg i.v.), the “AERP (Example 2)” value turned out to be 102 ± 3 ms; the AF inducibility came to 46±11%; the “mean duration of AF episodes” value was 1.1 ± 0.4 s and 1.1 ± 0.2 s. In [1] (1.0 mg/kg i.v.), the “decrease in AERP caused by rapid atrial pacing plus 5-HT application” value is “fully restored”, the “AERP (Example 2)” value came to 110 ± 4 ms, the AF inducibility is 30±9% and the “mean duration of AF episodes” value is given as “No further reduction”. In series [1] (1.0 mg/kg i.v., after pacing and 5-HT, pre-drug 90.0±2.7, p<0.01 vs vehicle), the “AERP (Example 1)” value turned out to be 110.0 ± 3.6 ms. In addition, the 5-HT4B receptor antagonism on 5-HT4B receptor was 5-HT4B antagonist and found to antagonise 5HT4B receptors. For the same compound, the “human daily oral dose that might give rise to certain side-effects” value in series [4] is recorded as not below 120 mg. Moreover, the half-life (commonly how long it takes for the measured level to halve) in series [5] (human, plasma, oral, read-out: elimination half-life T½) was 20 to 24 h. The “time to reach steady-state plasma concentrations” value in series [5] (once daily dosing) is 4 to 5 days. In addition, the “plasma concentration on day 4 as share of the steady-state plasma concentration” value in [5] (once daily dosing, day 4) is on record as “about 90%”. In [5] (once daily oral dosing), the extent of accumulation entry was “approximately 1.5 fold”. Further, the “5-HT4 receptor antagonist activity in guinea pig colon” value on 5-HT4 receptor was “particularly good activity”. For the same compound, in series [6] (0.3 mg/kg i.v., n=6), the “plasma level of SB-207266” value turned out to be 137.7 ± 15.2 ng/mL. Further, the “plasma level of SB-207266” value in series [6] (1.0 mg/kg i.v., n=5) was found to be 562.3 ± 40.1 ng/mL.

As to `COc1[nH]c2ccc(F)cc2c1C(=O)OCC1CCN(CCNS(C)(=O)=O)CC1` [GR 125487, [1-[2-[(Methylsulphonyl)amino]ethyl]-4-piperidinyl]methyl 5-fluoro-2-methoxy-1H-indole-3-carboxylate], at 5-HT4A receptors, the “pKi at 5-HT4A receptors” value is on record as 10.0. Moreover, at 5-HT3A receptors, the “pKi at 5-HT3A receptors” value is recorded as less than 6.5.
